For twelve compounds, T/C results are on record in PubChem BioAssay AID284 (DTP/NCI, 2004).

“And” between values parts separate entries of the source, which are not always exact repeats. Equal values may be shown once. Toxic doses and inconclusive results are not listed.

In this experiment the test system is BDF1 mice, L1210/MTX-resistant leukemia ip, survival T/C. The experiment can be described thus: NCI In Vivo Anticancer Drug Screen. Data for tumor model L1210 Leukemia resistant to Methotrexate; NSC 740 (intraperitoneal) in B6D2F1 (BDF1) mice. The settings on record: endpoint: mean survival time, higher = longer survival. How it is done: The antitumor activity of compounds was measured in mice bearing transplantable tumors. Survival or tumor size were measured and the results are expressed as the measurement made in the treated group (T) divided by the measurement made in the vehicle treated control group (C). The tumor model used in this assay is L1210 Leukemia resistant to Methotrexate; NSC 740 (intraperitoneal) in B6D2F1 (BDF1) mice

[1] abbreviates: dose: 15.0 mg/kg/injection, schedule: Q01DX010 (ip), vehicle: saline.
[2] abbreviates: dose: 7.5 mg/kg/injection, schedule: Q01DX Z (ip), vehicle: carboxymethylcellulose (CMC).
[3] abbreviates: dose: 15.0 mg/kg/injection, schedule: Q01DX Z (ip), vehicle: carboxymethylcellulose (CMC).

With `S=c1nc[nH]c2nc[nH]c12`, the T/C was 118 % of control (dose: 1.2 mg/kg/injection, schedule: Q01DX Z (ip), vehicle: carboxymethylcellulose (CMC)); 91 % of control (dose: 2.4 mg/kg/injection, schedule: Q01DX Z (ip), vehicle: carboxymethylcellulose (CMC)); 95 % of control (dose: 3.0 mg/kg/injection, schedule: Q01DX Z (ip), vehicle: carboxymethylcellulose (CMC)); 100 % of control (dose: 5.0 mg/kg/injection, schedule: Q01DX010 (ip), vehicle: alkali diluted with saline); 120 % of control and 91 % of control and 102 % of control (dose: 5.0 mg/kg/injection, schedule: Q01DX Z (ip), vehicle: alkali diluted with saline); 111 % of control (dose: 6.0 mg/kg/injection, schedule: Q01DX Z (ip), vehicle: carboxymethylcellulose (CMC)). For the same compound, the T/C runs as follows: (dose: 9.0 mg/kg/injection, schedule: Q01DX Z (ip), vehicle: carboxymethylcellulose (CMC)) 95 % of control; (dose: 10.0 mg/kg/injection, schedule: Q01DX010 (ip), vehicle: alkali diluted with saline) 99 % of control; (dose: 10.0 mg/kg/injection, schedule: Q01DX Z (ip), vehicle: alkali diluted with saline) 94 % of control and 110 % of control; (dose: 12.0 mg/kg/injection, schedule: Q01DX Z (ip), vehicle: carboxymethylcellulose (CMC)) 98 % of control; (dose: 20.0 mg/kg/injection, schedule: Q01DX010 (ip), vehicle: alkali diluted with saline) 101 % of control; (dose: 20.0 mg/kg/injection, schedule: Q01DX Z (ip), vehicle: alkali diluted with saline) 117 % of control and 91 % of control and 102 % of control. Besides, the T/C is 93 % of control and 103 % of control (dose: 25.0 mg/kg/injection, schedule: Q01DX Z (ip), vehicle: other); 102 % of control (dose: 36.0 mg/kg/injection, schedule: Q01DX Z (ip), vehicle: carboxymethylcellulose (CMC)); 104 % of control (dose: 40.0 mg/kg/injection, schedule: Q01DX010 (ip), vehicle: alkali diluted with saline); 95 % of control (dose: 80.0 mg/kg/injection, schedule: Q01DX010 (ip), vehicle: alkali diluted with saline); 123 % of control and 98 % of control (dose: 100.0 mg/kg/injection, schedule: Q01DX Z (ip), vehicle: other).
Turning to `CS(=O)(=O)OCC(O)C(O)COS(C)(=O)=O` (centres undefined), the T/C (dose: 18.8 mg/kg/injection, schedule: Q01DX Z (ip), vehicle: saline) was 88 % of control; the T/C (dose: 37.5 mg/kg/injection, schedule: Q01DX Z (ip), vehicle: saline) was 90 % of control; the T/C (dose: 75.0 mg/kg/injection, schedule: Q01DX Z (ip), vehicle: saline) is 101 % of control.
For `c1ccc(CCSc2ncnc3nc[nH]c23)cc1`, the T/C (dose: 62.5 mg/kg/injection, schedule: Q01DX010 (ip), vehicle: saline) is 93 % of control; the T/C (dose: 125.0 mg/kg/injection, schedule: Q01DX010 (ip), vehicle: saline) is 91 % of control; the T/C (dose: 250.0 mg/kg/injection, schedule: Q01DX010 (ip), vehicle: saline) is 100 % of control; the T/C (dose: 500.0 mg/kg/injection, schedule: Q01DX010 (ip), vehicle: saline) is 100 % of control.
Regarding `C[N+](C)(C)c1ncnc2nc[nH]c12`, the T/C under setting [1] is 94 % of control.
Regarding `Clc1ncnc2nc[nH]c12`, the T/C (dose: 7.5 mg/kg/injection, schedule: Q01DX010 (ip), vehicle: saline) was 90 % of control; the T/C under setting [1] is 90 % of control and 96 % of control; the T/C (dose: 30.0 mg/kg/injection, schedule: Q01DX010 (ip), vehicle: saline) is 92 % of control and 100 % of control; the T/C (dose: 60.0 mg/kg/injection, schedule: Q01DX010 (ip), vehicle: saline) is 96 % of control.
Turning to `O=C(Nc1ccc(C2=NCCCN2)cc1)c1ccc(C(=O)Nc2ccc(C3=NCCCN3)cc2)cc1`, the T/C (dose: 2.0 mg/kg/injection, schedule: Q01DX010 (ip), vehicle: other) is 222 % of control and 252 % of control; the T/C (dose: 4.0 mg/kg/injection, schedule: Q01DX010 (ip), vehicle: other) is 124 % of control and 242 % of control; the T/C (dose: 5.0 mg/kg/injection, schedule: Q01DX Z (ip), vehicle: carboxymethylcellulose (CMC)) was 208 % of control; the T/C under setting [2] is 122 % of control; the T/C (dose: 8.0 mg/kg/injection, schedule: Q01DX010 (ip), vehicle: other) is 114 % of control and 93 % of control; the T/C (dose: 10.0 mg/kg/injection, schedule: Q01DX Z (ip), vehicle: carboxymethylcellulose (CMC)) is 114 % of control. Besides, the T/C by setting is: under setting [3], 100 % of control; (dose: 16.0 mg/kg/injection, schedule: Q01DX010 (ip), vehicle: other) 93 % of control; (dose: 20.0 mg/kg/injection, schedule: Q01DX Z (ip), vehicle: carboxymethylcellulose (CMC)) 98 % of control; (dose: 25.0 mg/kg/injection, schedule: Q01DX Z (ip), vehicle: carboxymethylcellulose (CMC)) 96 % of control.
Take `C[C@@H]1C[C@@H]([C@H](O)CC2CC(=O)NC(=O)C2)C(=O)[C@@H](C)C1`: the T/C reads like this: (dose: 5.0 mg/kg/injection, schedule: Q01DX010 (ip), vehicle: saline) 90 % of control and 105 % of control; under setting [2], 112 % of control and 96 % of control; (dose: 10.0 mg/kg/injection, schedule: Q01DX010 (ip), vehicle: saline) 103 % of control; under setting [3], 92 % of control and 108 % of control; (dose: 20.0 mg/kg/injection, schedule: Q01DX010 (ip), vehicle: saline) 97 % of control; (dose: 30.0 mg/kg/injection, schedule: Q01DX Z (ip), vehicle: carboxymethylcellulose (CMC)) 114 % of control. Further, the T/C (dose: 40.0 mg/kg/injection, schedule: Q01DX010 (ip), vehicle: saline) was 95 % of control and 97 % of control.
Consider `O=C(Nc1ccc(C2=NCCN2)cc1)c1cccc(C(=O)Nc2ccc(C3=NCCN3)cc2)c1`, for which the T/C by setting is: (dose: 8.0 mg/kg/injection, schedule: Q01DX010 (ip), vehicle: saline) 177 % of control and 209 % of control; (dose: 12.5 mg/kg/injection, schedule: Q01DX Z (ip), vehicle: methylcellulose (MC)) 122 % of control; (dose: 16.0 mg/kg/injection, schedule: Q01DX010 (ip), vehicle: saline) 211 % of control and 247 % of control; (dose: 32.0 mg/kg/injection, schedule: Q01DX010 (ip), vehicle: saline) 225 % of control and 256 % of control; (dose: 50.0 mg/kg/injection, schedule: Q01DX Z (ip), vehicle: methylcellulose (MC)) 95 % of control; (dose: 64.0 mg/kg/injection, schedule: Q01DX010 (ip), vehicle: saline) 235 % of control and 250 % of control.
`O=c1[nH]cc(F)c(=O)[nH]1`: the T/C was 92 % of control and 101 % of control (dose: 25.0 mg/kg/injection, schedule: Q01DX Z (ip), vehicle: saline); 87 % of control and 93 % of control and 98 % of control (dose: 50.0 mg/kg/injection, schedule: Q01DX Z (ip), vehicle: saline).
On to `C=CC(CN1CC1)OC(C)=O` (centres undefined), for which the T/C is 119 % of control (dose: 1.25 mg/kg/injection, schedule: Q01DX Z (ip), vehicle: saline); 123 % of control (dose: 2.0 mg/kg/injection, schedule: Q01DX010 (ip), vehicle: saline); 107 % of control (dose: 2.5 mg/kg/injection, schedule: Q01DX Z (ip), vehicle: saline); 102 % of control (dose: 5.0 mg/kg/injection, schedule: Q01DX Z (ip), vehicle: saline).
For the compound `CNC=O`, the T/C (dose: 125.0 mg/kg/injection, schedule: Q01DX Z (ip), vehicle: saline) was 117 % of control; the T/C (dose: 150.0 mg/kg/injection, schedule: Q01DX Z (ip), vehicle: saline) was 104 % of control; the T/C (dose: 250.0 mg/kg/injection, schedule: Q01DX Z (ip), vehicle: saline) was 111 % of control; the T/C (dose: 300.0 mg/kg/injection, schedule: Q01DX Z (ip), vehicle: saline) was 156 % of control; the T/C (dose: 500.0 mg/kg/injection, schedule: Q01DX Z (ip), vehicle: saline) is 112 % of control.
As for `Oc1cc(CN(CCCl)CCCl)c(O)cc1CN(CCCl)CCCl`, the T/C is, setting by setting: (dose: 0.25 mg/kg/injection, schedule: Q01DX Z (ip), vehicle: carboxymethylcellulose (CMC)) 96 % of control; (dose: 0.37 mg/kg/injection, schedule: Q01DX Z (ip), vehicle: carboxymethylcellulose (CMC)) 110 % of control; (dose: 0.5 mg/kg/injection, schedule: Q01DX Z (ip), vehicle: carboxymethylcellulose (CMC)) 88 % of control; (dose: 0.75 mg/kg/injection, schedule: Q01DX Z (ip), vehicle: carboxymethylcellulose (CMC)) 97 % of control; (dose: 1.0 mg/kg/injection, schedule: Q01DX Z (ip), vehicle: carboxymethylcellulose (CMC)) 86 % of control; (dose: 2.0 mg/kg/injection, schedule: Q01DX Z (ip), vehicle: carboxymethylcellulose (CMC)) 88 % of control.
